Test results: patent publication US6624182B1, “Hydroxyphenylvinylthiazoles” (Ciba Specialty Chemicals Corporation, priority 1999, dated 2003)

Tests used:
Assay in all cases: Determination of the minimum inhibitory concentration (MIC value) in microtitre plates
A. niger = type: cell-based, Aspergillus niger ATCC 6275; conditions: optical density at 620 nm, 5 days at 28° C., MIC = ≦20% growth; tested at 100; 10 and 1 ppm (approximate values); (2), (3), (4) at 120; 60; 30; 15; 7.5; 3.75 ppm
Procedure: (§1) Determination of the Minimum Inhibitory Concentration (MIC Value) in Microtitre Plates Nutrient Medium Casein/soybean flour/peptone bouillon for the preparation of preliminary cultures of the test bacteria and yeast. Mycological slant agar for the preliminary culture of moulds Examples of Test Microbes: Mould: Aspergillus niger ATCC 6275 Procedure: The test substances are pre-dissolved in dimethyl sulfoxide (DMSO) and tested in a series of dilutions of 1:2. Bacteria and yeast are cultured overnight in CASO bouillon; the mould is cultured on myco-logical slant agar and sponged off with 10 ml of 0.85% sodium chloride solution (+0.1% Triton X-100). All the test microbes are adjusted to a germ count of 1−5×10^6 KBE/ml using 0.85% sodium chloride solution. The test substances are pre-pipetted into microtitre plates in an amount of 8 μl per well. Pre-diluted microbe suspensions are diluted 1:100 in CASO bouillon (bacteria and yeast) or Sabouraud 2% glucose bouillon (mould) and added to the test substances in an amount of 192 μl per well. The test batches are incubated for 48 hours at 37° C. (bacteria and yeast) or for 5 days at 28° C. (mould). After incubation, the growth is determined by means of the clouding of the test batches (optical density) at 620 nm in a microplate reader. The concentration of substance at which (compared with the growth control) a marked inhibition of growth (≦20% growth) of the test microbes can be observed is given as the minimum inhibitory concentration (MIC value). One microtitre plate is used per test microbe and substance concentration. All substances are tested in duplicate.

C. albicans = type: cell-based, Candida albicans ATCC 10231; conditions: optical density at 620 nm, 48 hours at 37° C., MIC = ≦20% growth; tested at 100; 10 and 1 ppm (approximate values); (2), (3), (4) at 120; 60; 30; 15; 7.5; 3.75 ppm
Procedure: as §1, with “Yeast: Candida albicans” for “Mould: Aspergillus niger”, “10231” for “6275”

P. aeruginosa = type: cell-based, Pseudomonas aeruginosa CIP A-22; conditions: optical density at 620 nm, 48 hours at 37° C., MIC = ≦20% growth; tested at 100; 10 and 1 ppm (approximate values); (2), (3), (4) at 120; 60; 30; 15; 7.5; 3.75 ppm
Procedure: as §1, with “Bacteria: Pseudomonas aeruginosa CIP A-22” for “Mould: Aspergillus niger ATCC 6275”

E. coli = type: cell-based, Escherichia coli NCTC 8196; conditions: optical density at 620 nm, 48 hours at 37° C., MIC = ≦20% growth; tested at 100; 10 and 1 ppm (approximate values); (2), (3), (4) at 120; 60; 30; 15; 7.5; 3.75 ppm
Procedure: as §1, with “Bacteria: Escherichia coli NCTC 8196” for “Mould: Aspergillus niger ATCC 6275”

S. aureus = type: cell-based; conditions: optical density at 620 nm, 48 hours at 37° C., MIC = ≦20% growth; tested at 100; 10 and 1 ppm (approximate values); (2), (3), (4) at 120; 60; 30; 15; 7.5; 3.75 ppm
Excerpt: as §1, with “Bacteria: Staphylococcus hominis DMS 20328” for “Mould: Aspergillus niger ATCC 6275”

| Compound | MIC values in ppm A. niger (A. niger) | MIC values in ppm C. albicans (C. albicans) | MIC values in ppm P. aeruginosa (P. aeruginosa) | MIC values in ppm E. coli (E. coli) | MIC values in ppm S. aureus (S. aureus) |
| --- | --- | --- | --- | --- | --- |
| COc1ccc(/C=C/c2nc(-c3ccc(F)cc3)cs2)cc1O [Compound of formula (6)] | >100 ppm | >100 ppm | >100 ppm | >100 ppm | >100 ppm |
| COc1cc(/C=C/c2nc(-c3ccc(F)cc3)cs2)ccc1O [Compound of formula (8)] | >100 ppm | >100 ppm | >100 ppm | >100 ppm | >100 ppm |
| COc1cc(/C=C/c2nc(-c3ccc(F)cc3)cs2)cc(O)c1OC [Compound of formula (11)] | >100 ppm | >100 ppm | >100 ppm | >100 ppm | >100 ppm |
| Cc1cc(/C=C/c2nc(-c3ccc(F)cc3)cs2)cc(C)c1O [Compound of formula (12)] | >100 ppm | >100 ppm | >100 ppm | >100 ppm | >100 ppm |
| CC(C)(C)c1csc(/C=C/c2ccc(O)cc2)n1 [Compound of formula (16)] | >100 ppm | >100 ppm | >100 ppm | >100 ppm | >100 ppm |
| CC(C)(C)c1csc(/C=C/c2cccc(O)c2)n1 [Compound of formula (17)] | >100 ppm | >100 ppm | >100 ppm | >100 ppm | >100 ppm |
| COc1ccc(/C=C/c2nc(C(C)(C)C)cs2)cc1O [Compound of formula (18)] | >100 ppm | >100 ppm | >100 ppm | >100 ppm | >100 ppm |

Next, values leading:

| MIC values in ppm A. niger (A. niger) | MIC values in ppm C. albicans (C. albicans) | MIC values in ppm P. aeruginosa (P. aeruginosa) | MIC values in ppm E. coli (E. coli) | MIC values in ppm S. aureus (S. aureus) | Compound |
| --- | --- | --- | --- | --- | --- |
| >100 ppm | >100 ppm | >100 ppm | >100 ppm | >100 ppm | Oc1cccc(/C=C/c2nc(-c3ccc(F)cc3)cs2)c1 [Compound of formula (5)] |
| >100 ppm | >100 ppm | >100 ppm | >100 ppm | >100 ppm | CCOc1cc(/C=C/c2nc(-c3ccc(F)cc3)cs2)ccc1O [Compound of formula (7)] |
| >100 ppm | >100 ppm | >100 ppm | >100 ppm | >100 ppm | COc1ccc(/C=C/c2nc(-c3ccc(F)cc3)cs2)c(O)c1 [Compound of formula (9)] |
| >100 ppm | >100 ppm | >100 ppm | >100 ppm | >100 ppm | Oc1ccccc1/C=C/c1nc(-c2ccc(F)cc2)cs1 [Compound of formula (10)] |
| >100 ppm | >100 ppm | >100 ppm | >100 ppm | >100 ppm | Cc1cccc(/C=C/c2nc(-c3ccc(F)cc3)cs2)c1O [Compound of formula (13)] |
| >100 ppm | >100 ppm | >100 ppm | >100 ppm | >100 ppm | Oc1cc(OCc2ccccc2)ccc1/C=C/c1nc(-c2ccc(F)cc2)cs1 [Compound of formula (14)] |
| >100 ppm | >100 ppm | >100 ppm | >100 ppm | >100 ppm | COc1cc(O)ccc1/C=C/c1nc(-c2ccc(F)cc2)cs1 [Compound of formula (15)] |
